Test results published in patent US4224448A, “2'-(5'-Nitrofuryl) substituted quinolines” (priority 1966, dated 1980).
In brackets after ≈: the same amount, converted by molar mass. Read-outs that look alike come from different tables or passages of the source.

Tests used:
Assay in all cases: Minimum inhibitory concentration, conventional tube dilution method
Type in all cases: cell-based
[1] = system: Candida albicans; details: fungus, tube dilution, 37 degrees, 24 hours, between 1 and 6 strains, mg/100 cc, decimal comma, read-out: Minimal Inhibitory Concentration, Cand. Alb.
Excerpt: (§1) The activity of some of the new nitrofuryl quinoline derivatives of the present invention is exemplified in Table 1 against a gram-positive (Staph. aureus), a gram-negative (Salmonella) bacterium and a fungus (Candida albicans). Table 1 indicates the minimum inhibitory concentration of the compound under reference in mg/100 cc required in order to inhibit the growth between 1 and 6 strains of each type. The measurements have been carried out by the conventional tube dilution method at 37 degrees after 24 hours.

[2] = system: Salmonella; details: read-out: Minimal Inhibitory Concentration, Salm.
Excerpt: as §1

[3] = system: Staph. aureus; details: Staphylococcus aureus; gram-positive; tube dilution, 37 degrees, 24 hours; between 1 and 6 strains; mg/100 cc; decimal comma; read-out: Minimal Inhibitory Concentration, Staph. aureus
Excerpt: as §1

[4] = gram-negative, tube dilution, 37 degrees, 24 hours, between 1 and 6 strains, mg/100 cc, decimal comma

Row | SMILES | MIC [1] | MIC [2, 4] | MIC [3] | MIC ([2]; 24 h)
1 | CC(=O)OC(OC(C)=O)c1cc(-c2ccc([N+](=O)[O-])o2)c2ccccc2n1 [CH(OAc)2 H NF H H H H] | 25 to 50 mg/L (≈ 67.5 to 135 µM) | 5 mg/L (≈ 13.5 µM) | 0.1 mg/L (≈ 0.27 µM) | 
2 | CCc1cc(-c2ccc([N+](=O)[O-])o2)c2ccc(OC)cc2n1 [C2 H5 H 5NF H H OCH3 H] | 10 mg/L (≈ 33.5 µM) | 25 mg/L (≈ 83.8 µM) | 0.01 to 0.5 mg/L (≈ 0.0335 to 1.68 µM) | 
3 | Cc1cc(-c2ccc([N+](=O)[O-])o2)c2cccc(C)c2n1 [CH3 H NF H H H CH3, 2,8-dimethyl-4-[2'-(5'-nitrofuryl)]quinoline] | 5 mg/L (≈ 18.6 µM) | > 50 mg/L | 0.3 mg/L (≈ 1.12 µM) | 
4 | O=C(O)c1cc(-c2ccc([N+](=O)[O-])o2)c2ccccc2n1 [COOH H NF H H H H, 2-carboxy-4-[2'-(5'-nitrofuryl)]quinoline] | 30 to 50 mg/L (≈ 106 to 176 µM) | > 10 mg/L | 1 mg/L (≈ 3.52 µM) | 
5 | CC(=O)Oc1ccc2c(-c3ccc([N+](=O)[O-])o3)cc(C)nc2c1 [CH3 H NF H H OCOCH3 H] | 10 mg/L (≈ 32 µM) | 2 mg/L (≈ 6.4 µM) |  | 
6 | Cc1cc(-c2ccc([N+](=O)[O-])o2)c2ccccc2[n+]1[O-] [O CH3 H NF H H H H, 2-methyl-4-[2'-(5'-nitrofuryl)] quinoline N-oxide] | 1 mg/L (≈ 3.7 µM) | 10 mg/L (≈ 37 µM) | 0.2 to 0.5 mg/L (≈ 0.74 to 1.85 µM) | 
7 | Cc1cc(-c2ccc([N+](=O)[O-])o2)[n+]([O-])c2ccccc12 [O NF H CH3 H H H H] | 2 to 5 mg/L (≈ 7.4 to 18.5 µM) | 10 mg/L (≈ 37 µM) | 1 mg/L (≈ 3.7 µM) | 
8 | COc1cc(OC)c2c(-c3ccc([N+](=O)[O-])o3)cc(C)nc2c1 [CH3 H NF OCH3 H OCH3 H] | > 50 mg/L | > 50 mg/L | 0.5 mg/L (≈ 1.59 µM) | 
9 | CCc1cc(-c2ccc([N+](=O)[O-])o2)c2ccc(OC)cc2[n+]1[O-] [O C2 H5 H NF H H OCH3 H] | > 50 mg/L |  | 0.01 to 0.5 mg/L (≈ 0.0318 to 1.59 µM) | 
10 | COc1ccc2c(-c3ccc([N+](=O)[O-])o3)cc[n+]([O-])c2c1 [O H H NF H H OCH3 H, 4-[2'-(5'-nitrofuryl)]-7-methoxy quinoline N-oxide] | 0.5 mg/L (≈ 1.75 µM) | 5 mg/L (≈ 17.5 µM) | 0.01 to 0.05 mg/L (≈ 0.0349 to 0.175 µM) | 
11 | O=[N+]([O-])c1ccc(-c2ccc3ccccc3[n+]2[O-])o1 [O NF H H H H H H] | < 5 mg/L |  | 0.5 mg/L (≈ 1.95 µM) | 
12 | CC(=O)Nc1ccc2c(-c3ccc([N+](=O)[O-])o3)cc(C)nc2c1C [CH3 H NF H H NHCOCH3 CH3] | > 50 mg/L | > 50 mg/L | 1 mg/L (≈ 3.07 µM) | 
13 | O=[N+]([O-])c1ccc(-c2cc[n+]([O-])c3ccccc23)o1 [O H H NF H H H H] | 0.5 mg/L (≈ 1.95 µM) | 5 mg/L (≈ 19.5 µM) | 0.1 to 0.5 mg/L (≈ 0.39 to 1.95 µM) | 
14 | Cc1ccc2nc(C)cc(-c3ccc([N+](=O)[O-])o3)c2c1 [CH3 H NF H CH3 H H, 2-methyl-4-[2'-(5'-nitrofuryl)]-6-methyl quinoline] | 5 mg/L (≈ 18.6 µM) | 5 mg/L (≈ 18.6 µM) | 0.1 mg/L (≈ 0.373 µM) | 
15 | CC(=O)c1cc(-c2ccc([N+](=O)[O-])o2)c2ccccc2n1 [COCH3 H NF H H H H, 4-[2'-(5'-nitrofuryl)]quinoline-2-methyl ketone] | > 50 mg/L | > 50 mg/L |  | 
16 | CCc1ccc2nc(C)cc(-c3ccc([N+](=O)[O-])o3)c2c1 [CH3 H NF H C2 H5 H H, 2-methyl-4-[2'-(5'-nitrofuryl)]-6-ethyl quinoline] | 25 mg/L (≈ 88.6 µM) | 25 mg/L (≈ 88.6 µM) | 0.1 mg/L (≈ 0.354 µM) | 
17 | Cc1cc(-c2ccc([N+](=O)[O-])o2)c2ccc(N)c(C)c2n1 [CH3 H NF H H NH2 CH3] | 5 mg/L (≈ 17.6 µM) |  |  | 1 to 5 mg/L (≈ 3.53 to 17.6 µM)
18 | Cc1ccc2c(-c3ccc([N+](=O)[O-])o3)cc(C(=O)O)nc2c1 [COOH H 5NF H H CH3 H, 2-carboxy-4-[2'-(5'-nitrofuryl)]-7-methyl quinoline] | 50 mg/L (≈ 168 µM) | 25 mg/L (≈ 83.8 µM) | 0.5 mg/L (≈ 1.68 µM) | 
19 | O=[N+]([O-])c1ccc(-c2cc(C=NO)[n+]([O-])c3ccccc23)o1 [O CHNOH H NF H H H H] | 0.5 mg/L (≈ 1.67 µM) | 1 to 5 mg/L (≈ 3.34 to 16.7 µM) |  | 
20 | COc1cc2c(cc1N)c(-c1ccc([N+](=O)[O-])o1)cc(C)[n+]2[O-] [O CH3 H NF H NH2 OCH3 H] | > 50 mg/L | 50 mg/L (≈ 159 µM) |  | 
21 | Cc1cc(-c2ccc([N+](=O)[O-])o2)c2ccc(Cl)cc2[n+]1[O-] [O CH3 H NF H H Cl H, 2-methyl-4-[2'-(5'-nitrofuryl)]-7-chloro-quinoline N-oxide] | 2 to 5 mg/L (≈ 6.56 to 16.4 µM) | > 25 mg/L | 1 mg/L (≈ 3.28 µM) | 
22 | Cc1ccc2c(-c3ccc([N+](=O)[O-])o3)cc(C(=O)O)[n+]([O-])c2c1 [O COOH H NF H H CH3 H, 2-carboxy-4-[2'-(5'-nitrofuryl)]-7-methyl quinoline N-oxide] | 50 mg/L (≈ 159 µM) |  | 0.5 mg/L (≈ 1.59 µM) | 
23 | Cc1ccc2c(-c3ccc([N+](=O)[O-])o3)cc(C)[n+]([O-])c2c1 [O CH3 H NF H H CH3 H] | 5 mg/L (≈ 17.6 µM) | > 50 mg/L |  | 
